{"source": "patent US20240426807A1", "about": "“SCREENING SYSTEM” (Givaudan SA, priority 2021, published 2024)", "type_in_all_cases": "cell-based", "key": {"OR5AN1 [1]": {"target": "T1, OR5AN1 (Homo sapiens, UniProt Q8NGI8)", "T1 construct": "expressed in transfected cells", "T1 sequence (Q8NGI8 1-311)": "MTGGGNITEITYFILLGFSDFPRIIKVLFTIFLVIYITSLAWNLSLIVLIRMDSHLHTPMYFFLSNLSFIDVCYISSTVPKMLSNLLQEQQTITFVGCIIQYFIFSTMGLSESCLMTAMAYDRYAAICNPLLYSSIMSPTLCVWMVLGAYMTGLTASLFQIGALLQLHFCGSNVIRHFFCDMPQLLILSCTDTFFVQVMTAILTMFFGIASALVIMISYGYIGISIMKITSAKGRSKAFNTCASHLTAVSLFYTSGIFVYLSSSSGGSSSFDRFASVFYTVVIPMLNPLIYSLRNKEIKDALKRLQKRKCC", "test": "Ligand-induced blasticidin resistance, OR5AN1 cells (pGL4.29-CRE-BLAST-OR)", "details": "HEK293T OR5AN1, odorant 10 μM, blasticidin 0.5-256 μg/ml, PrestoBlue viability day 4", "from_the_text": "To generate a vector allowing positive selection of cell clones with a functional expression of a specific OR gene, a blasticidin resistance gene was placed downstream of SEQ ID NO: 4. The pGL4.29-CRE-Puro-OR vector generated as described in Example 1 was digested with BgIII and FseI to remove the comprised basal promoter and the complete puromycin resistance gene. The removed basal promoter sequence was amplified with the primers […] (SEQ ID NO: 28), […] (SEQ ID NO: 63), and the blasticidin S deaminase (bsd, SEQ ID NO: 64) encoding sequence was amplified by PCR using the primers […] (SEQ ID NO: 66) […] (SEQ ID NO: 67). The two overlapping PCR products were joined by fusion PCR using primers […] (SEQ ID NO: 28) and […] (SEQ ID NO: 68). The resulting DNA fragment was digested with BgIII/FseI and ligated into the digested vector to generate pGL4.29-CRE-Blast-OR.\nThis vector was used to generate stable cell lines as described in Example 1.\nStable clones containing a stable insertion of the pGL4.29-CRE-BLAST-OR construct with the receptor OR5AN1 (NCBI Genbank Gene ID: 390195) were then plated at a density of 3000 cells/per well in 100 μl Dubelcco's Modified Eagle medium (DMEM) in polyethyleneimide-coated, white 96 well microtiter plates with a transparent bottom. After cells were allowed to adhere for 24 h, 50 μl of medium containing different odorants (musk ketone or ethyl vanillin at 40 μM) was added to each well resulting in an odorant concentration of 13.3 μM. 6 h after odorant addition, 50 μl of medium containing blasticidin was added to reach a final concentration of 0.5-256 μg/ml in 10 two-fold dilution steps (day 1 of selection). This step further diluted the odorant to 10 μM. On day 4 of the selection (72 h after blasticidin addition), medium from each well was removed completely, 100 μl PrestoBlue® cell viability reagent (ThermoFisher Scientific, Catalog No: 14200-083) diluted in phosphate buffered saline containing 1 mg/ml glucose was added to each well and cells were incubated at 37° C. until a color change was visible in the wells containing no blasticidin. The fluorescence was determined at 560 excitation and 590 nm emission to assess relative cell metabolic activity, which is the net result of cell growth and cell killing in presence of the different blasticidin concentrations. The result was expressed as % viability relative to controls with no cells (0%) and cells treated with olfactory ligand only (100%)."}, "OR10G9": {"target": "T2, OR10G9 (Homo sapiens, UniProt Q8NGN4)", "T2 construct": "expressed in transfected cells", "T2 sequence (Q8NGN4 1-311)": "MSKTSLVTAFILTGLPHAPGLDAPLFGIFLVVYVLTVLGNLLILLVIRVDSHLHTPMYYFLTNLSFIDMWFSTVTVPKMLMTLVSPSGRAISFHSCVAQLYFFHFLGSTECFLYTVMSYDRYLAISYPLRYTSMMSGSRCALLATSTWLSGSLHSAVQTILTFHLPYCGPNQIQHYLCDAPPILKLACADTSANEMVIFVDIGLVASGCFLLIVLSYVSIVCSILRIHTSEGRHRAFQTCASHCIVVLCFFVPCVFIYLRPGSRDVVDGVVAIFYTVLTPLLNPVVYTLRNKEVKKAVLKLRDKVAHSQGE", "test": "Ligand-induced OR-dependent puromycin resistance, OR10G9 cells", "details": "HEK293T, pGL4.29-CRE-Puro-Hygro-OR with OR10G9; musk ketone 10 μM, eugenol or isoeugenol 1 μM, ultravanil or vanitrope 100 μM; puromycin 0.015-16 μg/ml; PrestoBlue viability day 4", "protocol": "(§1) Stable clones selected with hygromycin containing a stable insertion of the pGL4.29-CRE-Puro-Hygro-OR construct described in Example 1 with either one of the receptors OR10G7, OR10G9 or OR5AN1 (NCBI Genbank Gene ID 390265, 219870 and 390195) were plated at a density of 3000 cells/per well in 200 μl Dubelcco's Modified Eagle medium (DMEM) in polyethyleneimide-coated, white 96 well microtiter plates with a transparent bottom. After cells were allowed to adhere for 24 h, they were exposed to different odorants (musk ketone at 10 μM, eugenol or isoeugenol at 1 μM, ultravanil or vanitrope at 100 μM). 7 h after odorant addition, 100 μl of the medium was removed and replaced with fresh medium with the same odorant concentrations and, in addition, puromycin to reach a final concentration of 0.015-16 μg/ml in 11 twofold dilution steps (day 1 of selection). On day 2 and 3, 100 μl of the medium was again removed and replaced with fresh medium with the same concentration of odorant and puromycin. On day 4 of the selection, medium from each well was removed completely, 100 ul PrestoBlue® cell viability reagent (ThermoFisher Scientific, Catalog No: 14200-083) diluted in phosphate buffered saline was added to each well and cells were incubated at 37° C. until a color change was visible in the wells containing no puromycin. The fluorescence was determined at 560 excitation and 590 nm emission to assess relative cell metabolic activity, which is the net result of cell growth and cell killing in presence of the different puromycin concentrations. The result was expressed as % viability relative to controls with no cells (0%) and cells treated with olfactory ligand only (100%)."}, "[2]": {"target": "T3, pool of cells with OR5A1, OR5A2, OR5AN1, OR6Y1, OR10G4, OR10G7 or OR10G9 (Homo sapiens, UniProt Q8NGN3)", "T3 construct": "expressed in transfected cells; host or cells: HEK293T stably expressing RTP1S and RTP2; 7 separate transfections pooled", "T3 sequence (Q8NGN3 1-311)": "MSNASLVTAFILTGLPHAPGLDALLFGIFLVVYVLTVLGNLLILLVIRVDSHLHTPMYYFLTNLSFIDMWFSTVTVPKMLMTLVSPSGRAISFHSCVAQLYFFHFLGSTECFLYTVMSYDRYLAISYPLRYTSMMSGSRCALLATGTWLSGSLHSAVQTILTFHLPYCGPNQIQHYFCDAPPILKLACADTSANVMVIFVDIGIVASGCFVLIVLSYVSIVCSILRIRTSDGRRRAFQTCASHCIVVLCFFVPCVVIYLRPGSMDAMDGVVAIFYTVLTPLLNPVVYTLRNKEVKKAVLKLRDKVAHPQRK", "test": "Selection of cognate-receptor cells from a pool of OR-expressing cells with the target ligand and puromycin", "details": "100 μM vanitrope, puromycin 1 μg/ml, pool of 7 OR transfections", "protocol": "For many ligands the cognate OR receptors are not known (“orphan receptors”), or it is unknown among a pool of receptors, which one has the best affinity for a ligand of interest, e.g. a perfumery note of particular interest. Thus, the ligand-induced selection pressure can be used to enrich a specific OR-expressing cell from a pool of OR-expressing cells in the presence of a ligand of interest. HEK293T cells stably expressing RTP1S and RTP2 were seeded into 7 wells of 6-well plates at 330,000 cells/well.\nThe next day, the cells of each well were transfected with 2 μg of a PvuI-linearized pGL4.29-CRE-Puro-Hygro-OR construct harboring one of the receptors OR5A1 (NCBI Genbank Gene ID: 219982), OR5A2 (NCBI Genbank Gene ID: 219981), OR5AN1 NCBI Genbank Gene ID: 390195, SEQ ID NO: 70), OR6Y1 (NCBI Genbank Gene ID: 391112), OR10G4 (NCBI Genbank Gene ID: 390264, SEQ ID NO: 72), OR10G7 (NCBI Genbank Gene ID: 390265, SEQ ID NO: 71), or OR10G9 (NCBI Genbank Gene ID: 219870). 24 h after transfection, the cells of all 7 transfections were harvested and pooled. 350 cells of this pool of cells with different OR genes inserted were then seeded into each well of seven 96-well plates.\n3 days later, cells were stimulated with ligands for either OR5AN1 (10 μM musk ketone), OR10G7 (1 μM eugenol), or OR10G4 (100 μM vanitrope). One plate was treated with DMSO only. 6h after the addition of the OR ligands, puromycin was added to each plate at a final concentration of 1 μg/ml. On every day during the following week, the medium on all plates was replaced with fresh medium containing the corresponding ligand and puromycin. The plates were then searched for wells containing only a single colony of puromycin-resistant cells. The cells of those colonies were transferred to larger plates and grown until they had multiplied to about 8 Mio cells. The genomic DNA of 2 Mio cells of each clone were isolated using the Puregene kit according to the manufacturer's protocol. […]"}, "OR10G7": {"target": "T4, OR10G7 (Homo sapiens, UniProt Q8NGN6, T5S)", "T4 construct": "expressed in transfected cells", "T4 sequence (Q8NGN6 1-311 T5S)": "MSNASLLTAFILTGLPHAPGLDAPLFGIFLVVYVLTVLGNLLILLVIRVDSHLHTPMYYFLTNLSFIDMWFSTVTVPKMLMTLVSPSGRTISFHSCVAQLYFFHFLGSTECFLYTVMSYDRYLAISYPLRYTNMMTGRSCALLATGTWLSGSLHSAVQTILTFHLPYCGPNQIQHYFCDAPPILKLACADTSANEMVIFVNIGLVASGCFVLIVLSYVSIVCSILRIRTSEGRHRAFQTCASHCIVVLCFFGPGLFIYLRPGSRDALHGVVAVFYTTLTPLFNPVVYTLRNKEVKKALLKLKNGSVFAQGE", "test": "Ligand-induced OR-dependent puromycin resistance, OR10G7 cells", "details": "HEK293T, pGL4.29-CRE-Puro-Hygro-OR with OR10G7; musk ketone 10 μM, eugenol or isoeugenol 1 μM, ultravanil or vanitrope 100 μM; puromycin 0.015-16 μg/ml; PrestoBlue viability day 4", "protocol": "as §1"}, "OR5AN1 [3]": {"target": "T1, OR5AN1", "test": "Ligand-induced OR-dependent puromycin resistance, OR5AN1 cells", "details": "HEK293T, pGL4.29-CRE-Puro-Hygro-OR with OR5AN1; musk ketone 10 μM, eugenol or isoeugenol 1 μM, ultravanil 100 μM; puromycin 0.015-16 μg/ml; PrestoBlue viability day 4", "protocol": "as §1"}, "OR5A2 (clone 3)": {"target": "T5, OR5A2 (clone 3) (Homo sapiens, UniProt Q8NGI9)", "T5 construct": "expressed in transfected cells; clone 3 selected with musk ambrette and puromycin", "T5 sequence (Q8NGI9 with tags, fused parts or gaps)": "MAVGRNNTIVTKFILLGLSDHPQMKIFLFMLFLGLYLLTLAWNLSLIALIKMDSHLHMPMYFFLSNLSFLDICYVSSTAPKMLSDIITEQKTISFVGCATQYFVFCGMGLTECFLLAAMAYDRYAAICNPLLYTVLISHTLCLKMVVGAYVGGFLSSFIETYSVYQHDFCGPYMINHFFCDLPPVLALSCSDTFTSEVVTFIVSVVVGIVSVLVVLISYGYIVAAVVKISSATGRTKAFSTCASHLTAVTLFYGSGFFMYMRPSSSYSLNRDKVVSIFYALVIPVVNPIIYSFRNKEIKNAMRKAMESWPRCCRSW", "test": "Ligand-induced puromycin resistance of isolated clone 3 containing OR5A2", "details": "for puromycin resistance of clone 3 in presence of odorant: clone 3 (OR5A2), 11 concentrations of puromycin, co-treated with olfactory ligands"}}, "note": "Entries after “also recorded” stand apart in the source; their conditions may differ."}
{"smiles": "CCOc1cc(C=O)ccc1O", "note": "[ethyl vanillin]", "values": [{"measurement": "blasticidin resistance in presence of odorant versus solvent control", "setting": "OR5AN1 [1]", "result": "equally sensitive to blasticidin as in presence of the solvent control"}, {"measurement": "blasticidin resistance in presence of odorant versus solvent control", "setting": "OR5AN1 [1]; listed as ethylvanillin", "result": "does not increase resistance over solvent control"}]}
{"smiles": "C/C=C/c1ccc(OCC)c(O)c1", "note": "[vanitrope, propenyl guaethol]", "values": [{"measurement": "puromycin resistance in presence of odorant versus solvent control", "setting": "OR10G9", "result": "increased resistance to puromycin; also recorded: selectively enhanced resistance"}, {"measurement": "colonies selected with the ligand that contained OR10G4", "setting": "[2]", "result": "8 out of 8"}, {"measurement": "puromycin resistance in presence of odorant versus solvent control", "setting": "OR10G7", "result": "increased resistance to puromycin; also recorded: strongly enhanced puromycin resistance"}]}
{"smiles": "CC=Cc1ccc(O)c(OC)c1", "note": "[isoeugenol]", "values": [{"measurement": "puromycin resistance in presence of odorant versus solvent control", "setting": "OR10G9", "result": "no increased resistance"}, {"measurement": "puromycin resistance in presence of odorant versus solvent control", "setting": "OR5AN1 [3]", "result": "do not increase resistance over solvent control; also recorded: the resistance was equal to the solvent control"}, {"measurement": "puromycin resistance in presence of odorant versus solvent control", "setting": "OR10G7", "result": "increased resistance to puromycin; also recorded: strongly enhanced puromycin resistance"}]}
{"smiles": "COc1c(C(C)(C)C)cc([N+](=O)[O-])c(C)c1[N+](=O)[O-]", "note": "[musk ambrette]", "values": [{"measurement": "puromycin resistance of clone 3 in presence of odorant", "setting": "OR5A2 (clone 3)", "result": "increased resistance to puromycin"}, {"measurement": "survival of clone 3 under puromycin treatment with ligand", "setting": "OR5A2 (clone 3); musk ambrette 30 μM, puromycin 3 μg/ml, continuous exposure", "result": "able to survive puromycin treatment in presence of the ligand musk ambrette but not in its absence"}]}
{"smiles": "CCOc1cc(C)ccc1O", "note": "[ultravanil, vanilla cresol]", "values": [{"measurement": "puromycin resistance in presence of odorant versus solvent control", "setting": "OR10G9", "result": "increased resistance to puromycin; also recorded: selectively enhanced resistance"}, {"measurement": "puromycin resistance in presence of odorant versus solvent control", "setting": "OR5AN1 [3]", "result": "do not increase resistance over solvent control; also recorded: the resistance was equal to the solvent control"}, {"measurement": "puromycin resistance in presence of odorant versus solvent control", "setting": "OR10G7", "result": "increased resistance to puromycin; also recorded: strongly enhanced puromycin resistance"}]}
{"smiles": "CC(OC(C)(C)COC(=O)C1CC1)C1CCCC(C)(C)C1", "note": "(centres unmarked) [serenolide]", "values": [{"measurement": "puromycin resistance of clone 3 in presence of odorant", "setting": "OR5A2 (clone 3)", "result": "increased resistance to puromycin"}]}
